Measurements as given in patent US9980943B2, “Methods of treating muscular dystrophy” (BOARD OF REGENTS OF THE NEVADA SYSTEM OF HIGHER EDUCATION, …, priority 2013, dated 2018).

Key:
Format in all cases: cell-based, mouse
[1] = test system: β-galactosidase in CMV-LacZ C2C12 myotubes; assay: CMV-LacZ secondary screen in C2C12 myotubes (β-Gal stabilizing assay); details: for CMV-LACZ in Myotubes (β-galactosidase activity relative to DMSO): CMV-LacZ C2C12 myotubes, 96-well format; for CMV-LACZ in Myotubes, signal relative to DMSO: C2C12 CMV-LacZ myotubes, fold relative to DMSO
Method in brief: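 β-Gal level was the read-out, measured in a clonal C2C12 line expressing LacZ from a CMV promoter. Dose-response curves used six concentrations, 0.5 μM up to 40 μM, with duplicate points.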

[2] = test system: α7 integrin (LacZ reporter in α7+/LacZ myotubes); assay: Myotube α7 integrin FDG assay (Burkin assay in myotubes, 96-well); details: myotubes
[3] = test system: α7 integrin (LacZ reporter in α7βgal+/− myoblasts); assay: Myoblast α7+/LacZ integrin FDG assay (Burkin assay in myoblasts, 96-well); details: α7+/LacZ myoblasts, 96-well

SMILES: COCCn1c(=N)c(S(=O)(=O)c2ccc(Br)cc2)cc2c(=O)n3ccccc3nc21 [MLS001141113-01]
- CMV-LACZ in Myotubes (β-galactosidase activity relative to DMSO) ([1]; 5 uM): 1.134
- CMV-LACZ in Myotubes (β-galactosidase activity relative to DMSO) ([1]; 10 uM): 1.383
- CMV-LACZ in Myotubes (β-galactosidase activity relative to DMSO) ([1]; 20 uM): 0.9823
- CMV-LACZ in Myotubes (β-galactosidase activity relative to DMSO) ([1]; 40 uM): 1.913
- fold induction at 0.5 µM ([2]; Mus musculus, Myotube, 0.5 uM, read-out: Burkin Assay in Myotubes (signal relative to DMSO)): 1.04
- fold induction at 1 µM ([2]; Mus musculus, Myotube, 1 uM, read-out: Burkin Assay in Myotubes (signal relative to DMSO)): 0.854
- fold induction at 5 µM ([2]; Mus musculus, Myotube, 5 uM, read-out: Burkin Assay in Myotubes (signal relative to DMSO)): 1.05
- fold induction at 10 µM ([2]; Mus musculus, Myotube, 10 uM, read-out: Burkin Assay in Myotubes (signal relative to DMSO)): 0.929
- fold induction at 20 µM ([2]; Mus musculus, Myotube, 20 uM, read-out: Burkin Assay in Myotubes (signal relative to DMSO)): 0.887
- fold induction at 40 µM ([2]; Mus musculus, Myotube, 40 uM, read-out: Burkin Assay in Myotubes (signal relative to DMSO)): 0.812
- fold induction at 0.5 µM ([3]; Mus musculus, Myoblast, 48 h, 0.5 uM, read-out: Burkin Assay in Myoblasts, value relative to DMSO): 1.23
- fold induction at 1 µM ([3]; Mus musculus, Myoblast, 48 h, 1 uM, read-out: Burkin Assay in Myoblasts, value relative to DMSO): 1.06
- fold induction at 5 µM ([3]; Mus musculus, Myoblast, 48 h, 5 uM, read-out: Burkin Assay in Myoblasts, value relative to DMSO): 1.08
- fold induction at 10 µM ([3]; Mus musculus, Myoblast, 48 h, 10 uM, read-out: Burkin Assay in Myoblasts, value relative to DMSO): 1.07
- fold induction at 20 µM ([3]; Mus musculus, Myoblast, 48 h, 20 uM, read-out: Burkin Assay in Myoblasts, value relative to DMSO): 0.915
- fold induction at 40 µM ([3]; Mus musculus, Myoblast, 48 h, 40 uM, read-out: Burkin Assay in Myoblasts, value relative to DMSO): 0.56

SMILES: Cc1ccc(NC(=O)COc2ccccc2CNC(C)(C)CC(C)(C)C)cc1 [MLS000538580-01]
- CMV-LACZ in Myotubes, signal relative to DMSO ([1]; 5 uM): 0.6613
- CMV-LACZ in Myotubes, signal relative to DMSO ([1]; 10 uM): 0.5729
- CMV-LACZ in Myotubes, signal relative to DMSO ([1]; 20 uM): 0.3838
- CMV-LACZ in Myotubes, signal relative to DMSO ([1]; 40 uM): 0.2705
- Burkin Assay in Myotubes, α7 integrin LacZ reporter signal relative to DMSO ([2]; 0.5 uM): 1.087
- Burkin Assay in Myotubes, α7 integrin LacZ reporter signal relative to DMSO ([2]; 1 uM): 1.025
- Burkin Assay in Myotubes, α7 integrin LacZ reporter signal relative to DMSO ([2]; 5 uM): 0.8641
- Burkin Assay in Myotubes, α7 integrin LacZ reporter signal relative to DMSO ([2]; 10 uM): 0.4774
- Burkin Assay in Myotubes, α7 integrin LacZ reporter signal relative to DMSO ([2]; 20 uM): 0.928
- Burkin Assay in Myotubes, α7 integrin LacZ reporter signal relative to DMSO ([2]; 40 uM): 0.1825
- Burkin Assay in Myoblasts, signal relative to DMSO ([3]; 0.5 uM): 0.9645
- Burkin Assay in Myoblasts, signal relative to DMSO ([3]; 1 uM): 0.9097
- Burkin Assay in Myoblasts, signal relative to DMSO ([3]; 5 uM): 0.8691
- Burkin Assay in Myoblasts, signal relative to DMSO ([3]; 10 uM): 0.5306
- Burkin Assay in Myoblasts, signal relative to DMSO ([3]; 20 uM): 0.03863
- Burkin Assay in Myoblasts, signal relative to DMSO ([3]; 40 uM): 0.02896

SMILES: Cc1cccc(NC(=O)c2ccc(N3C(=O)C4CCCCC4C3=O)cc2)c1C (stereo not shown) [MLS001147727-01]
- CMV-LACZ in Myotubes, signal relative to DMSO ([1]; 5 uM): 1.12
- CMV-LACZ in Myotubes, signal relative to DMSO ([1]; 10 uM): 0.9069
- CMV-LACZ in Myotubes, signal relative to DMSO ([1]; 20 uM): 1.2365
- CMV-LACZ in Myotubes, signal relative to DMSO ([1]; 40 uM): 1.1835
- Burkin Assay in Myotubes, α7 integrin LacZ reporter signal relative to DMSO ([2]; 0.5 uM): 0.9937
- Burkin Assay in Myotubes, α7 integrin LacZ reporter signal relative to DMSO ([2]; 1 uM): 0.7877
- Burkin Assay in Myotubes, α7 integrin LacZ reporter signal relative to DMSO ([2]; 5 uM): 1.101
- Burkin Assay in Myotubes, α7 integrin LacZ reporter signal relative to DMSO ([2]; 10 uM): 0.9716
- Burkin Assay in Myotubes, α7 integrin LacZ reporter signal relative to DMSO ([2]; 20 uM): 1.11
- Burkin Assay in Myotubes, α7 integrin LacZ reporter signal relative to DMSO ([2]; 40 uM): 0.9652
- Burkin Assay in Myoblasts, signal relative to DMSO ([3]; 0.5 uM): 1.212
- Burkin Assay in Myoblasts, signal relative to DMSO ([3]; 1 uM): 1.039
- Burkin Assay in Myoblasts, signal relative to DMSO ([3]; 5 uM): 1.029
- Burkin Assay in Myoblasts, signal relative to DMSO ([3]; 10 uM): 0.8892
- Burkin Assay in Myoblasts, signal relative to DMSO ([3]; 20 uM): 1.128
- Burkin Assay in Myoblasts, signal relative to DMSO ([3]; 40 uM): 0.9044

SMILES: O=C(CSc1nnc(C2CC2)n1C1CC1)c1cccs1 [MLS002161757-01]
- CMV-LACZ in Myotubes (β-galactosidase activity relative to DMSO) ([1]; 5 uM): 0.919
- CMV-LACZ in Myotubes (β-galactosidase activity relative to DMSO) ([1]; 10 uM): 1.102
- CMV-LACZ in Myotubes (β-galactosidase activity relative to DMSO) ([1]; 20 uM): 1.153
- CMV-LACZ in Myotubes (β-galactosidase activity relative to DMSO) ([1]; 40 uM): 1.256
- Burkin Assay in Myotubes (signal relative to DMSO) ([2]; 0.5 uM): 0.8459
- Burkin Assay in Myotubes (signal relative to DMSO) ([2]; 1 uM): 1.07
- Burkin Assay in Myotubes (signal relative to DMSO) ([2]; 5 uM): 1.092
- Burkin Assay in Myotubes (signal relative to DMSO) ([2]; 10 uM): 1.06
- Burkin Assay in Myotubes (signal relative to DMSO) ([2]; 20 uM): 0.9795
- Burkin Assay in Myotubes (signal relative to DMSO) ([2]; 40 uM): 1.146
- Burkin Assay in Myoblasts, value relative to DMSO ([3]; 0.5 uM): 0.9614
- Burkin Assay in Myoblasts, value relative to DMSO ([3]; 1 uM): 0.892
- Burkin Assay in Myoblasts, value relative to DMSO ([3]; 5 uM): 0.9113
- Burkin Assay in Myoblasts, value relative to DMSO ([3]; 10 uM): 0.9135
- Burkin Assay in Myoblasts, value relative to DMSO ([3]; 20 uM): 1.009
- Burkin Assay in Myoblasts, value relative to DMSO ([3]; 40 uM): 1.151
